Experimental data as given in patent publication US11440923B2, “Substituted macrocyclic indole derivatives” (Bayer Aktiengesellschaft, priority 2017, dated 2022).
Counter-ions that a name gives are not always drawn. Like-named read-outs stand apart in the source and are kept apart here.

What was measured:
[1] = system: SUDHL5 cells; assay: Induction of cytotoxicity in SUDHL5 cells (Assay 6); format: cell-based; conditions: 5 h, CellTiter-Glo, read-out: Cytotox SUDHL5 IC50 (median)
How it was run: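 Cells plated overnight at 37 °C, then exposed to compound for 5 h in a humidified incubator at 37 °C. Viability read by CellTiter-Glo luminescence after 15 min shaking at room temperature; cell-free medium served as control.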

[2] = target: BCL-XL (Homo sapiens (Human), UniProt Q07817); assay: Protein-protein interaction assay BCL-XL/Bad BH3 peptide (BCL-XL assay, TR-FRET); format: binding; conditions: read-out: BCL-XL Assay IC50 (median)
BCL-XL, sequence (Q07817 1-212): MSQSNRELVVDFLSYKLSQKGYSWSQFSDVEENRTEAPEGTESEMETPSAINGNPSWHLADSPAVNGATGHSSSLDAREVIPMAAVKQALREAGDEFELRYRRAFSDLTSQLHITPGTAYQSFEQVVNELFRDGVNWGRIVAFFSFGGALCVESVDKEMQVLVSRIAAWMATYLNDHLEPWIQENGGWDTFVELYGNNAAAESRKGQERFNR
Protocol: Assay 2 Protein-Protein Interaction Assay: BCL-XL/Bad BH3 Peptide (BCL-XL Assay)
The dose-dependent inhibition by the compounds described in this invention of the interaction between BCL-XL and the BH3 domain of Bad (both human) was determined using a steady state binding competition assay with time-resolved fluorescence energy transfer (TR-FRET) readout. For that purpose BCL-XL (amino acids 1-212, C-terminal fused to a hexahistidine (6×His) tag (SEQ ID 3) and a synthetic Bad BH3-derived peptide of sequence Biotin-PEG2-PEG2-[…]-Nle-[…]-amide (SEQ ID 4) served as protein receptor and tracer ligand respectively. The recombinant BCL-XL protein (expressed in E. coli) was purchased from BPS Bioscience (San Diego, Calif., USA). The Bad BH3-derived peptide can be obtained from e.g. Biosyntan (Berlin, Germany).
In the assay 11 different concentrations of each compound (0.1 nM, 0.33 nM, 1.1 nM, 3.8 nM, 13 nM, 44 nM, 0.15 μM, 0.51 μM, 1.7 μM, 5.9 μM and 20 μM) were typically measured as duplicates in the same microtiter plate. For that, 100-fold concentrated DMSO solutions were prepared by serial dilutions (1:3.4) of a 2 mM stock solution in a clear, 384-well microtiter plate (Greiner Bio-One, Frickenhausen, Germany). From there, 50 nl were transferred in a dark test plate (Greiner Bio-One, Frickenhausen, Germany). The assay was initiated by addition of 2 μL of a 2,5-fold concentrated His-BCL-XL solution (usually for a 1 nM end concentration in 5 μL reaction volume) in aqueous assay buffer [50 mM Tris/HCl pH 7, 100 mM sodium chloride (NaCl), 50 mM potassium fluoride (KF), 0.005% Tween-20, 2 mM DTT, 0.1% bovine gamma globulin (BGG)] to the compounds in the assay plate. This was followed by a 10-minute incubation step at 22° C. for pre-equilibration of the putative complex between His-BCL-XL and the compounds. After that, 3 μL of a 1.67-fold concentrated solution (in assay buffer) consisting of Bad BH3-derived peptide (1 nM end concentration) and TR-FRET detection reagents [1.67 nM anti-His-Eu cryptate and 1.67 nM streptavidin-XL665 (both from Cisbio Bioassays, Codolet, France)], were added.
The mixture was incubated in the dark for one hour at 22° C. and then overnight at 4° C. The formation of BCL-XL/Bad complexes was determined by measuring the resonance energy transfer of the anti-His- Eu-cryptate antibody to the streptavidin-XL665 present in the reaction. For that purpose, the fluorescence emission at 620 nm and 665 nm after excitation at 330-350 nm was measured in a TR-FRET measuring instrument, for instance a Rubystar or a Pherastar (both from BMG Lab Technologies, Offenburg, Germany) or a Viewlux (Perkin-Elmer). The ratio of the emission at 665 nm and at 622 nm was used as indicator of the amount of BCL-XL/Bad complexes present.
The resulting data (ratio) were normalized, taking 0% inhibition as the mean value of control measurements (usually 32 data points) where all reagents were included. In this case 50 nl DMSO were used instead of compounds. […] IC50 values were determined by regression analysis based on a 4 parameter equation (minimum, maximum, IC50, Hill; Y=Max+(Min−Max)/(1+(X/IC50)^Hill) using the Screener Software (Genedata).

SMILES | IC50 [1] [nM] | IC50 [2] [µM] | IC50 ([1]; Homo sapiens, SU-DHL-5, 5 h) [nM]
CCc1c2c(nn1C)C(CCN1CCC(F)(F)C1)OCCCCn1c(C(=O)O)c(CCCOc3cccc4cc(F)ccc34)c3ccc(Cl)c-2c31 (single isomer, unassigned; enantiomer 1) [Example 56, 4-chloro-15-[2-(3,3-difluoropyrrolidin-1-yl)ethyl]-3-ethyl-7-{3-[(6-fluoronaphthalen-1-yl)oxy]propyl}-2-methyl-2,10,11,12,13,15-hexahydropyrazolo[4′,3′:9,10][1,6]oxazacycloundecino[8,7,6-hi]indole-8-carboxylic Acid—N-ethylethanamine Salt (Enantiomer 1)] | 21 | > 20 | 
Cc1c2c(nn1C)C(CCN1CCOCC1)OCCCCn1c(C(=O)O)c(CCCOc3cccc4cc(F)ccc34)c3ccc(Cl)c-2c31 (single isomer, unassigned; enantiomer 2) [Example 18, 4-chloro-7-{3-[(6-fluoronaphthalen-1-yl)oxy]propyl}-2,3-dimethyl-15-[2-(morpholin-4-yl)ethyl]-2,10,11,12,13,15-hexahydropyrazolo[4′,3′:9,10][1,6]oxazacycloundecino[8,7,6-hi]indole-8-carboxylic Acid (Enantiomer 2)] |  | > 20 | 530
Cc1c2c(nn1C)C(C1CC1)OCCCCn1c(C(=O)O)c(CCCOc3cccc4ccccc34)c3ccc(Cl)c-2c31 (racemic) [Example 28, (rac)-4-Chloro-15-cyclopropyl-2,3-dimethyl-7-{3-[(naphthalen-1-yl)oxy]propyl}-2,10,11,12,13,15-hexahydropyrazolo[4′,3′:9,10][1,6]oxazacycloundecino[8,7,6-hi]indole-8-carboxylic Acid] |  | 19.8 | 3000
CCc1c2c(nn1C)C(CCOC)OCCCCn1c(C(=O)O)c(CCCOc3cccc4cc(F)ccc34)c3ccc(Cl)c-2c31 (single isomer, unassigned; enantiomer 2) [Example 43, (−)-4-chloro-3-ethyl-7-{3-[(6-fluoronaphthalen-1-yl)oxy]propyl}-15-(2-methoxyethyl)-2-methyl-2,10,11,12,13,15-hexahydropyrazolo[4′,3′:9,10][1,6]oxazacycloundecino[8,7,6-hi]indole-8-carboxylic Acid—N-ethylethanamine Salt (Enantiomer 2)] | 18000 | 17.2 | 
CCc1c2c(nn1C)C(CCN1CCOCC1)OCCCCn1c(C(=O)O)c(CCCOc3cccc4ccccc34)c3ccc(F)c-2c31 (single isomer, unassigned; enantiomer 1) [Example 11, 3-ethyl-4-fluoro-2-methyl-15-[2-(morpholin-4-yl)ethyl]-7-{3-[(naphthalen-1-yl)oxy]propyl}-2,10,11,12,13,15-hexahydropyrazolo[4′,3′:9,10][1,6]oxazacycloundecino[8,7,6-hi]indole-8-carboxylic Acid—N-ethylethanamine Salt (Enantiomer 1)] | 95 |  | 
CCc1c2c(nn1C)C(CCN1CCN(C)CC1)OCCCCn1c(C(=O)O)c(CCCOc3cccc4cc(F)ccc34)c3ccc(Cl)c-2c31 (racemic) [Example 71, (rac)-4-chloro-3-ethyl-7-{3-[(6-fluoronaphthalen-1-yl)oxy]propyl}-2-methyl-(15-rac)-[2-(4-methylpiperazin-1-yl)ethyl]-2,10,11,12,13,15-hexahydropyrazolo[4′,3′:9,10][1,6]oxazacycloundecino[8,7,6-hi]indole-8-carboxylic Acid—N-ethylethanamine Salt (Mixture 2 Od Stereoisomers)] |  | > 20 | 
CCc1c2c(nn1C)C(CCC(C)(C)O)OCCCCn1c(C(=O)O)c(CCCOc3cccc4cc(F)ccc34)c3ccc(Cl)c-2c31 (single isomer, unassigned; enantiomer 1) [Example 75, (+)-4-chloro-3-ethyl-7-{3-[(6-fluoronaphthalen-1-yl)oxy]propyl}-15-(3-hydroxy-3-methylbutyl)-2-methyl-2,10,11,12,13,15-hexahydropyrazolo[4′,3′:9,10][1,6]oxazacycloundecino[8,7,6-hi]indole-8-carboxylic Acid—N-ethylethanamine Salt (Enantiomer 1)] | 12 |  | 
CCc1c2c(nn1C)C(CCC1CCOCC1)OCCCCn1c(C(=O)O)c(CCCOc3cccc4cc(F)ccc34)c3ccc(Cl)c-2c31 (single isomer, unassigned; enantiomer 1) [Example 63, (+)-4-chloro-3-ethyl-7-{3-[(6-fluoronaphthalen-1-yl)oxy]propyl}-2-methyl-15-[2-(oxan-4-yl)ethyl]-2,10,11,12,13,15-hexahydropyrazolo[4′,3′:9,10][1,6]oxazacycloundecino[8,7,6-hi]indole-8-carboxylic Acid—N-ethylethanamine Salt (Enantiomer 1)] | 49 |  | 
CCc1c2c(nn1C)C(CCC1CCOCC1)OCCCCn1c(C(=O)O)c(CCCOc3cccc4cc(F)ccc34)c3ccc(Cl)c-2c31 (single isomer, unassigned; enantiomer 1) [Example 61, 4-chloro-3-ethyl-7-{3-[(6-fluoronaphthalen-1-yl)oxy]propyl}-2-methyl-15-[2-(oxan-4-yl)ethyl]-2,10,11,12,13,15-hexahydropyrazolo[4′,3′:9,10][1,6]oxazacycloundecino[8,7,6-hi]indole-8-carboxylic Acid (Enantiomer 1)] | 38 |  | 
CCc1c2c(nn1C)C1CCCCN1CCCCn1c(C(=O)O)c(CCCOc3cccc4ccccc34)c3ccc(Cl)c-2c31 (racemic) [Example 102, (rac)-18-chloro-1-ethyl-2-methyl-15-[3-(1-naphthyloxy)propyl]-2,3b,4,5,6,7,9,10,11,12-decahydropyrazolo[3′,4′:8,9]pyrido[1′,2′:6,7][1,6]diazacycloundecino[10,11,1-hi]indole-14-carboxylic Acid] |  |  | 800
CCc1c2c(nn1C)C1CCCN1CCCCn1c(C(=O)O)c(CCCOc3cccc4cc(F)ccc34)c3ccc(Cl)c-2c31 (single isomer, unassigned; (+)) [Example 105, (+)-17-chloro-1-ethyl-14-{3-[(6-fluoronaphthalen-1-yl)oxy]propyl}-2-methyl-3b,4,5,6,8,9,10,11-octahydro-2H-pyrazolo[3′,4′:8,9]pyrrolo[1′,2′:6,7][1,6]diazacycloundecino[10,11,1-hi]indole-13-carboxylic Acid] | 370 |  | 
CCc1c2c(nn1C)C(CCN1CC(F)(F)C1)OCCCCn1c(C(=O)O)c(CCCOc3cccc4cc(F)ccc34)c3ccc(Cl)c-2c31 (single isomer, unassigned; (+)) [Example 78, (+)-4-chloro-15-[2-(3,3-difluoroazetidin-1-yl)ethyl]-3-ethyl-7-{3-[(6-fluoronaphthalen-1-yl)oxy]propyl}-2-methyl-2,10,11,12,13,15-hexahydropyrazolo[4′,3′:9,10][1,6]oxazacycloundecino[8,7,6-hi]indole-8-carboxylic Acid—N-ethylethanamine Salt] | 14 |  | 
CCc1c2c(nn1C)C(CCN1CCN(C)CC1)OCCCCn1c(C(=O)O)c(CCCOc3cccc4cc(F)ccc34)c3ccc(Cl)c-2c31 (racemic) [Example 68, 4-chloro-3-ethyl-7-{3-[(6-fluoronaphthalen-1-yl)oxy]propyl}-2-methyl-(15-rac)-[2-(4-methylpiperazin-1-yl)ethyl]-2,10,11,12,13,15-hexahydropyrazolo[4′,3′:9,10][1,6]oxazacycloundecino[8,7,6-hi]indole-8-carboxylic Acid—N-ethylethanamine Salt (Mixture 1 of Stereoisomers)] |  | > 20 | 
